Reference: PMC8469395 (Pharmaceutics, 2021)
Where two headings read alike, the source gives them in different places.

Experiments:
Format in all cases: in vitro ADME, rat
TR-iBRB2 cells = assay: Effect of compounds on [3H]amantadine uptake by TR-iBRB2 cells
Protocol: (§1) In 10% fetal bovine serum (FBS; Merck, Darmstadt, Germany)-containing Dulbecco’s modified Eagle’s medium (DMEM; Nissui Pharmaceutical, Tokyo, Japan) with 20 mM NaHCO3, 0.19 mM benzylpenicillin potassium, and 0.14 mM streptomycin sulfate, TR-iBRB2 cells (passage number 32–60) were cultured according to previous reports. As described previously, RPE-J cells (passage number 79-92) were cultured in DMEM with 4% FBS, 20 mM NaHCO3, and 0.1 mM non-essential amino acid (FUJIFILM Wako Pure Chemical, Osaka, Japan) containing 0.16 mM benzylpenicillin potassium and 0.17 mM streptomycin sulfate. In accordance with established protocols for the uptake study, the cells were seeded at a density of 1.0 × 10^5 cells/well onto a collagen I-coated 24-well plate (BioCoat™ Collagen I Cellware, Corning, Corning, NY, USA) and cultured for 2 days, at 33 °C, under 5% CO2/air. Referring to the previous reports, we started the uptake reaction, and the details of the procedure are included in the Supplemental Materials.
(§2) Cell/medium ratio = [^3H]compound (dpm) per cell protein (mg)/[^3H]compound (dpm) per medium (µL)(2) […]
(§3) 7.4) three times at 37°C.
(§4) and KHCO3, respectively. Cl--free ECF buffer was prepared by replacing equimolar
(§5) protein assay kit (Bio-Rad, Hercules, CA, USA).

RPE-J cells [1] = assay: Effect of compounds on [3H]amantadine uptake by RPE-J cells
Protocol: as §1, §2, §3, §4, §5

RPE-J cells [2] = assay: Verapamil uptake by RPE-J cells, effect of amantadine
Protocol: as §1
Cell/medium ratio = [^3H]compound (dpm) per cell protein (mg)/[^3H]compound (dpm) per medium (µL)(2)
Kinetic parameters for cell uptake, such as the maximal uptake rate (Vmax), Michaelis–Menten constant (Km), and non-saturable uptake clearance (Kd), were obtained by using the nonlinear least-squares regression analysis program (MULTI) with Equations (3)–(5), where the uptake rate of the test compound and its concentration were V and S, respectively. V = (Vmax × S)/(Km + S)(3) V = (Vmax × S)/(Km + S) + Kd × S(4) V = (Vmax1 × S)/(Km1 + S) + (Vmax2 × S)/(Km2 + S)(5) […]
as §3, §4, §5

[3] = compound 0.2 mM, [3H]amantadine 1.67 µM, 3 min, 37 °C
[4] = Rattus norvegicus, 0.05 h, read-out: [3H]amantadine uptake, % of Control, TR-iBRB2
[5] = Rattus norvegicus, 0.05 h, read-out: [3H]amantadine uptake, % of Control, RPE-J
[6] = compound 1.0 mM, [3H]amantadine 1.67 µM, 3 min, 37 °C
[7] = compound 2.5 mM, [3H]amantadine 1.67 µM, 3 min, 37 °C

SMILES: C=C[C@H]1C[N@@]2CC[C@H]1C[C@@H]2[C@@H](O)c1ccnc2ccc(OC)cc12 [Quinidine]
- [3H]amantadine uptake, % of Control, TR-iBRB2 (TR-iBRB2 cells; [3]): 13.7 ± 1.8 % of Control
- [3H]amantadine uptake, % of Control, RPE-J (RPE-J cells [1]; [3]): 34.1 ± 3.0 % of Control

SMILES: CN/C(=N/CCSCc1nc[nH]c1C)NC#N [Cimetidine]
- [3H]amantadine uptake, % of Control, TR-iBRB2 (TR-iBRB2 cells): 97.6 ± 24.7 % of Control
- [3H]amantadine uptake, % of Control, RPE-J (RPE-J cells [1]; [3]): 106 ± 5 % of Control

SMILES: COc1ccc(CCN(C)CCCC(C#N)(c2ccc(OC)c(OC)c2)C(C)C)cc1OC (stereo not drawn) [Verapamil]
- [3H]amantadine uptake, % of Control, TR-iBRB2 (TR-iBRB2 cells): 22.1 ± 6.2 % of Control
- [3H]amantadine uptake, % of Control, RPE-J (RPE-J cells [1]): 20.5 ± 4.8 % of Control
- Km (RPE-J cells [2]): 55.6 ± 5.2 µM
- Vmax (RPE-J cells [2]): 6.31 ± 0.35 nmol/(min·mg protein)
- reduction of [3H]verapamil uptake by unlabeled verapamil (RPE-J cells [2]): 86%

SMILES: CNCCCN1c2ccccc2CCc2ccccc21 [Desipramine]
- [3H]amantadine uptake, % of Control, TR-iBRB2 (TR-iBRB2 cells; [3]): 7.05 ± 0.57 % of Control
- [3H]amantadine uptake, % of Control, RPE-J (RPE-J cells [1]; [3]): 10.7 ± 5.6 % of Control

SMILES: O=C(O)[C@H](O)[C@@H](O)[C@H](O)[C@H](O)CO [Gluconate]
- [3H]amantadine uptake, % of Control, TR-iBRB2 (TR-iBRB2 cells; [3]): 91.7 ± 21.7 % of Control
- [3H]amantadine uptake, % of Control, RPE-J (RPE-J cells [1]; [3]): 86.2 ± 23.4 % of Control

SMILES: NCCc1c[nH]c2ccc(O)cc12 [Serotonin]
- activity at 200 µM (TR-iBRB2 cells; [4]): 126 ± 60%
- activity at 200 µM (RPE-J cells [1]; [5]): 158 ± 52%

SMILES: C[n+]1ccc(-c2ccccc2)cc1 [MPP^+, 1-methyl-4-phenylpyridinium]
- [3H]amantadine uptake, % of Control, TR-iBRB2 (TR-iBRB2 cells; [3]): 106 ± 31 % of Control
- [3H]amantadine uptake, % of Control, RPE-J (RPE-J cells [1]; [3]): 75.5 ± 5.0 % of Control
- [3H]amantadine uptake, % of Control, RPE-J (RPE-J cells [1]; [6]): 91.9 ± 5.6 % of Control

SMILES: CN(C)CCCN1c2ccccc2CCc2ccccc21 [Imipramine]
- activity at 200 µM (TR-iBRB2 cells; [4]): 8.37 ± 1.43%
- activity at 200 µM (RPE-J cells [1]; [5]): 16.9 ± 5.2%

SMILES: CC(=O)Nc1nnc(S(N)(=O)=O)s1 [Acetazolamide]
- [3H]amantadine uptake, % of Control, TR-iBRB2 (TR-iBRB2 cells; [3]): 90.9 ± 3.8 % of Control

SMILES: N[C@@H](CC(=O)O)C(=O)O [L-Aspartic acid]
- activity at 2500 µM (TR-iBRB2 cells; [4]): 101 ± 23%
- activity at 2500 µM (RPE-J cells [1]; [5]): 79.5 ± 12.7%

SMILES: COc1ccc(CN(CCN(C)C)c2ccccn2)cc1 [Pyrilamine]
- activity at 200 µM (TR-iBRB2 cells; [4]): 20.9 ± 1.8%
- activity at 200 µM (RPE-J cells [1]; [5]): 77.8 ± 38.4%
- activity at 1000 µM (RPE-J cells [1]; [5]): 18.2 ± 1.7%

SMILES: C[N+](C)(C)C[C@H](O)CC(=O)[O-] [L-Carnitine]
- [3H]amantadine uptake, % of Control, TR-iBRB2 (TR-iBRB2 cells; [3]): 111 ± 35 % of Control
- [3H]amantadine uptake, % of Control, TR-iBRB2 (TR-iBRB2 cells; [7]): 99.5 ± 2.3 % of Control
- [3H]amantadine uptake, % of Control, RPE-J (RPE-J cells [1]; [3]): 95.1 ± 5.2 % of Control
- [3H]amantadine uptake, % of Control, RPE-J (RPE-J cells [1]; [7]): 119 ± 28 % of Control

SMILES: CC[N+](CC)(CC)CC [TEA, tetraethylammonium]
- [3H]amantadine uptake, % of Control, TR-iBRB2 (TR-iBRB2 cells): 117 ± 45 % of Control
- [3H]amantadine uptake, % of Control, RPE-J (RPE-J cells [1]; [3]): 87.7 ± 11.8 % of Control
- [3H]amantadine uptake, % of Control, RPE-J (RPE-J cells [1]; [6]): 81.8 ± 10.3 % of Control

SMILES: CCN1/C(=C/c2ccc3ccccc3[n+]2CC)C=Cc2ccccc21.[I-] [Decynium-22]
- [3H]amantadine uptake, % of Control, TR-iBRB2 (TR-iBRB2 cells; [3]): 106 ± 31 % of Control
- [3H]amantadine uptake, % of Control, RPE-J (RPE-J cells [1]; [3]): 86.7 ± 41.9 % of Control
- [3H]amantadine uptake, % of Control, RPE-J (RPE-J cells [1]; compound 0.5 mM, [3H]amantadine 1.67 µM, 3 min, 37 °C): 136 ± 8 % of Control
